In patent US20260250325A1, “Antiviral Polypeptide Membrane Fusion Inhibitor, and Preparation Method and Application Thereof” (priority 2025, published 2026):
Where a SMILES comes first, the peptide text is derived from it. The star is where a group is joined. Succinyl(4-O-cholesteryl) = CC(C)CCC[C@@H](C)[C@H]1CC[C@H]2[C@@H]3CC=C4C[C@@H](OC(=O)CCC(=O)*)CC[C@]4(C)[C@H]3CC[C@]12C; X1 = CC(C)CCCC(C)C1CCC2C3CC=C4CC(OC(=O)CCC(=O)*)CCC4(C)C3CCC12C

What follows are compounds tested on RSV A long virus strain. Settings: RSV A long virus strain, HEp-2 cells, plaque reduction, 1 day; read-out: IC50.
Assay type: cell-based
Procedure, shortened: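 Plaque reduction in HEp-2 cells: virus (100 PFU/well) and serially diluted compound (8 concentrations) mixed 1 h, adsorbed 2 h, then overlaid with 0.8% CMC medium plus compound for 1 day at 37 °C. Spots counted after anti-RSV immunostaining; IC50 from normalized inhibition, CC50 from viability data.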

`CC[C@H](C)[C@H](NC(=O)[C@H](CCCCN)NC(=O)[C@H](CCCCN)NC(=O)[C@H](CC(C)C)NC(=O)[C@H](CO)NC(=O)[C@H](CCC(=O)O)NC(=O)[C@H](CCC(=O)O)NC(=O)[C@@H](NC(=O)[C@H](CCCCN)NC(=O)[C@H](CCCCN)NC(=O)[C@H](CC(N)=O)NC(=O)[C@@H](NC(=O)[C@H](CCC(=O)O)NC(=O)[C@H](CCC(=O)O)NC(=O)[C@@H](NC(=O)[C@H](CCCCN)NC(=O)[C@H](CCCCN)NC(=O)[C@H](CCCCN)NC(=O)[C@H](CC(=O)O)NC(=O)[C@H](Cc1ccccc1)NC(=O)[C@H](CCC(=O)O)NC(=O)[C@H](CC(=O)O)NC(C)=O)[C@@H](C)CC)C(C)C)[C@@H](C)CC)C(=O)N[C@@H](CCC(=O)O)C(=O)N[C@@H](CCC(=O)O)C(=O)N[C@@H](CO)C(=O)N[C@@H](CC(=O)O)C(=O)N[C@@H](CCCCN)C(=O)N[C@@H](CCCCN)C(=O)N[C@@H](CC(C)C)C(=O)N[C@@H](CCC(=O)O)C(=O)N[C@@H](CCC(=O)O)C(=O)N[C@H](C(=O)NCC(=O)N[C@@H](CO)C(=O)NCC(=O)N[C@@H](CO)C(=O)NCC(=O)N[C@@H](CCCCNC(=O)CCC(=O)O[C@H]1CC[C@@]2(C)C(=CC[C@H]3[C@@H]4CC[C@H]([C@H](C)CCCC(C)C)[C@@]4(C)CC[C@@H]32)C1)C(N)=O)C(C)C` [Compound 15] (Ac-DEFDKKKIEEVNKKIEESLKKIEESDKKLEEVGSGSGK(Succinyl(4-O-cholesteryl))-NH2) and `CC[C@H](C)[C@H](NC(=O)[C@H](CCCCN)NC(=O)[C@H](CCC(=O)O)NC(=O)[C@H](CC(C)C)NC(=O)[C@H](CO)NC(=O)[C@H](CCC(N)=O)NC(=O)[C@H](CC(N)=O)NC(=O)[C@@H](NC(=O)[C@H](CCCCN)NC(=O)[C@H](CCC(=O)O)NC(=O)[C@H](CC(N)=O)NC(=O)[C@@H](NC(=O)[C@H](CCC(N)=O)NC(=O)[C@H](CO)NC(=O)[C@H](C)NC(=O)[C@H](CC(=O)O)NC(=O)[C@H](Cc1ccccc1)NC(=O)[C@@H](NC(=O)[C@H](CC(C)C)NC(=O)[C@H](CCC(=O)O)NC(=O)[C@H](CC(=O)O)NC(=O)[C@H](Cc1ccc(O)cc1)NC(C)=O)C(C)C)C(C)C)[C@@H](C)CC)C(=O)N[C@@H](CCCNC(=N)N)C(=O)N[C@@H](CCCCN)C(=O)N[C@@H](CO)C(=O)N[C@@H](CC(=O)O)C(=O)N[C@@H](CCC(=O)O)C(=O)N[C@@H](CC(C)C)C(=O)N[C@@H](CC(C)C)C(=O)N[C@@H](Cc1c[nH]cn1)C(=O)N[C@@H](CC(N)=O)C(=O)N[C@H](C(=O)N[C@@H](CCC(=O)O)C(=O)N[C@@H](C)C(=O)N[C@@H](C)C(=O)N[C@@H](C)C(=O)N[C@@H](CCCCN)C(=O)N[C@@H](CCCCNC(=O)CCC(=O)O[C@H]1CC[C@@]2(C)C(=CC[C@H]3[C@@H]4CC[C@H]([C@H](C)CCCC(C)C)[C@@]4(C)CC[C@@H]32)C1)C(N)=O)C(C)C` [Compound 30] (Ac-YDELVFDASQVNEKINQSLEKIRKSDELLHNVEAAAKK(Succinyl(4-O-cholesteryl))-NH2) are within 1.5-fold of each other in IC50: 0.0104 µM for the first, 0.0149 µM for the second.

`CC[C@H](C)[C@H](NC(=O)[C@H](CO)NC(=O)[C@H](C)NC(=O)[C@H](CC(=O)O)NC(=O)[C@H](Cc1ccccc1)NC(C)=O)C(=O)N[C@@H](CCC(=O)O)C(=O)N[C@@H](CCC(=O)O)C(=O)N[C@H](C(=O)N[C@@H](CC(N)=O)C(=O)N[C@@H](CCCNC(=N)N)C(=O)N[C@@H](CCCNC(=N)N)C(=O)N[C@H](C(=O)N[C@@H](CCC(=O)O)C(=O)N[C@@H](CCC(=O)O)C(=O)N[C@@H](CO)C(=O)N[C@@H](CC(C)C)C(=O)N[C@@H](CCCNC(=N)N)C(=O)N[C@@H](CCCNC(=N)N)C(=O)N[C@H](C(=O)N[C@@H](CCC(=O)O)C(=O)N[C@@H](CCC(=O)O)C(=O)N[C@@H](CO)C(=O)N[C@@H](CC(=O)O)C(=O)N[C@@H](CCCNC(=N)N)C(=O)N[C@@H](CCCNC(=N)N)C(=O)N[C@@H](CC(C)C)C(=O)N[C@@H](CCC(=O)O)C(=O)N[C@@H](CCC(=O)O)C(=O)N[C@H](C(=O)N[C@@H](CC(N)=O)C(=O)N[C@@H](C)C(=O)N[C@@H](CCC(=O)O)C(=O)N[C@@H](C)C(=O)N[C@@H](C)C(=O)N[C@@H](C)C(=O)N[C@@H](CCCCN)C(=O)N[C@@H](CCCCNC(=O)CCC(=O)O[C@H]1CC[C@@]2(C)C(=CC[C@H]3[C@@H]4CC[C@H]([C@H](C)CCCC(C)C)[C@@]4(C)CC[C@@H]32)C1)C(N)=O)C(C)C)[C@@H](C)CC)[C@@H](C)CC)C(C)C` [Compound 42] (Ac-FDASIEEVNRRIEESLRRIEESDRRLEEVNAEAAAKK(Succinyl(4-O-cholesteryl))-NH2) and `CC[C@H](C)[C@H](NC(=O)[C@H](CCCCN)NC(=O)[C@H](CCCCN)NC(=O)[C@H](CC(C)C)NC(=O)[C@H](CO)NC(=O)[C@H](CCC(=O)O)NC(=O)[C@H](CCC(=O)O)NC(=O)[C@@H](NC(=O)[C@H](CCCCN)NC(=O)[C@H](CCCCN)NC(=O)[C@H](CC(N)=O)NC(=O)[C@@H](NC(=O)[C@H](CCC(=O)O)NC(=O)[C@H](CCC(=O)O)NC(=O)[C@@H](NC(=O)[C@H](CCCCN)NC(=O)[C@H](CCCCN)NC(=O)[C@H](CC(=O)O)NC(=O)[C@H](Cc1ccccc1)NC(=O)[C@H](CCC(=O)O)NC(=O)[C@H](CC(=O)O)NC(=O)[C@H](Cc1c[nH]c2ccccc12)NC(C)=O)[C@@H](C)CC)C(C)C)[C@@H](C)CC)C(=O)N[C@@H](CCC(=O)O)C(=O)N[C@@H](CCC(=O)O)C(=O)N[C@@H](CO)C(=O)N[C@@H](CC(=O)O)C(=O)N[C@@H](CCCCN)C(=O)N[C@@H](CCCCN)C(=O)N[C@@H](CC(C)C)C(=O)N[C@@H](Cc1c[nH]cn1)C(=O)N[C@@H](CC(N)=O)C(=O)N[C@H](C(=O)N[C@@H](CCC(=O)O)C(=O)N[C@@H](C)C(=O)N[C@@H](C)C(=O)N[C@@H](C)C(=O)N[C@@H](CCCCN)C(=O)N[C@@H](CCCCNC(=O)CCC(=O)O[C@H]1CC[C@@]2(C)C(=CC[C@H]3[C@@H]4CC[C@H]([C@H](C)CCCC(C)C)[C@@]4(C)CC[C@@H]32)C1)C(N)=O)C(C)C` [Compound 44] (Ac-WDEFDKKIEEVNKKIEESLKKIEESDKKLHNVEAAAKK(Succinyl(4-O-cholesteryl))-NH2) are within 1.5-fold of each other in IC50: 0.0118 µM for the first, 0.0124 µM for the second.

“Ac-SLEQVNEKINQSLAFIRKSDEINQSDEEVNKSDELLEAAAKK-NH2 [Compound 50]” and “Ac-WDEFDASISQVNEKINQSLEEIRKSDELLHNVNALEAAAKK(Succinyl(4-O-cholesteryl))-NH2 [Compound 38]” are within 1.5-fold of each other in IC50: 0.0151 µM for the first, 0.0146 µM for the second.

In the case of `CC[C@H](C)[C@H](NC(=O)[C@H](CCCCN)NC(=O)[C@H](CCCCN)NC(=O)[C@H](CC(C)C)NC(=O)[C@H](CO)NC(=O)[C@H](CCC(=O)O)NC(=O)[C@H](CCC(=O)O)NC(=O)[C@@H](NC(=O)[C@H](CCCCN)NC(=O)[C@H](CCCCN)NC(=O)[C@H](CC(N)=O)NC(=O)[C@@H](NC(=O)[C@H](CCC(=O)O)NC(=O)[C@H](CCC(=O)O)NC(=O)[C@@H](NC(=O)[C@H](CCCCN)NC(=O)[C@H](CCCCN)NC(=O)[C@H](CC(=O)O)NC(=O)[C@H](Cc1ccccc1)NC(=O)[C@H](CCC(=O)O)NC(=O)[C@H](CC(=O)O)NC(C)=O)[C@@H](C)CC)C(C)C)[C@@H](C)CC)C(=O)N[C@@H](CCC(=O)O)C(=O)N[C@@H](CCC(=O)O)C(=O)N[C@@H](CO)C(=O)N[C@@H](CC(=O)O)C(=O)N[C@@H](CCCCN)C(=O)N[C@@H](CCCCN)C(=O)N[C@@H](CC(C)C)C(=O)N[C@@H](CCC(=O)O)C(=O)N[C@@H](CCC(=O)O)C(=O)N[C@H](C(=O)N[C@@H](CCC(=O)O)C(=O)N[C@@H](C)C(=O)N[C@@H](C)C(=O)N[C@@H](C)C(=O)N[C@@H](CCCCN)C(=O)N[C@@H](CCCCNC(=O)CCC(=O)OC1CCC2(C)C(=CCC3C2CCC2(C)C(C(C)CCCC(C)C)CCC32)C1)C(N)=O)C(C)C` (stereo partly shown) [Compound 21] (Ac-DEFDKKIEEVNKKIEESLKKIEESDKKLEEVEAAAKK(X1)-NH2), the IC50 is reported as 0.0146 µM.
